Results as given in patent US6414150B1, “4,5-disubstituted imidazole compounds” (SmithKline Beecham Corporation, priority 1996, dated 2002).

system: human PGHS-2 protein expression in LPS stimulated human monocytes; assay: Prostaglandin Endoperoxide Synthase-2 (PGHS-2) assay; format: cell-based; conditions: LPS 50 ng/well overnight, Western blot
Method: The following assay describes a method for determining the inhibitory effects of compounds of Formula (I) on human PGHS-2 protein expression in LPS stimulated human monocytes.
Method: Human peripheral blood monocytes were isolated from buffy coats by centrifugation through Ficoll and Percoll gradients. Cells were seeded at 2×10^6/well in 24 well plates and allowed to adhere for 1 hour in RPMI supplemented with 1% human AB serum, 20 mM L-glutamine, Penicillin-Streptomycin and 10 mM HEPES. Compounds were added at various concentrations and incubated at 37° C. for 10 minutes. LPS was added at 50 ng/well (to induce enzyme expression) and incubated overnight at 37° C. The supernatant was removed and cells washed once in cold PBS. The cells were lysed in […] of cold lysis buffer(50 mM Tris/HCl pH 7.5, 150 mM NaCl, 1% NP40, 0.5% sodium deoxycholate, 0.1% SDS, 300 ug/ml DNAse, 0.1% TRITON X-100, 1 mM PMSF, 1 mM leupeptin, 1 mM pepstatin). The lysate was centrifuged (10,000×g for 10 min. at 4° C.) to remove debris and the soluble fraction was subjected to SDS PAGE. analysis (12% gel). Protein separated on the gel were transferred onto nitrocellulose membrane by electrophoretic means for 2 hours at 60 volts. The membrane was pretreated for one hour in PBS/0.1% Tween 20 with 5% non-fat dry milk. After washing 3 times in PBS/Tween buffer, the membrane was incubated with a 1:2000 dilution of a monospecific antiserum to PGHS-2 or a 1:1000 dilution of an antiserum to PGHs-1 in PBS/Tween with 1% BSA for one hour with continuous shaking. The membrane was washed 3× in PBS/Tween and then incubated with a 1:3000 dilution of horseradish peroxidase conjugated donkey antiserum to rabbit Ig (Amersham) in PBS/Tween with 1% BSA for one hour with continuous shaking. The membrane was then washed 3× in PBS/Tween and the ECL immunodetection system (Amersham) was used to detect the level of expression of prostaglandin endoperoxide synthases-2.

Row | SMILES | inhibition of LPS induced PGHS-2 protein expression
1 | Fc1ccc(-c2nc3n(c2-c2ccncc2)CCS3)cc1 [6-(4-Fluoro-phenyl)-2,3-dihydro-5-(4-pyridinyl)imidazo[2,1-b]thiazole] | active
2 | C[C@@H]1C[C@H]2[C@@H]3CCC4=CC(=O)C=C[C@]4(C)[C@@]3(F)[C@@H](O)C[C@]2(C)[C@@]1(O)C(=O)CO [Dexamethasone] | active

same assay, conditions: tested up to 10 uM

Row | SMILES | inhibition of LPS induced PGHS-2 protein expression
3 | C[S+]([O-])c1ccc(-c2nc3n(c2-c2ccncc2)CCC3)cc1 (stereo not drawn) [2-(4-Methylsulfinylphenyl)-3-(4-pyridyl)-6,7-dihydro-(5H)-pyrrolo[1,2-a]imidazole] | inactive
4 | CC(Cc1ccc(O)c(O)c1)C(C)Cc1ccc(O)c(O)c1 (stereo not drawn) [NDGA] | inactive
5 | O=C1CCN(c2ccccc2)N1 [phenidone] | inactive
6 | COc1ccc(C2CNC(=O)C2)cc1OC1CCCC1 (stereo not drawn) [rolipram] | inactive
